Measurements taken from PubChem BioAssay (NCI).
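Briefly, cells in 96-well plates were exposed to five compound concentrations for 48 h, and endpoints were estimated by linear interpolation. GI50 is the concentration that inhibits growth by half. Definition used: TGI = concentration required for complete inhibition of growth.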

Assays:
Test in all cases: NCI anticancer screen, dose series, 48 h
786-0 renal = test system: 786-0 renal
A498 renal = test system: A498 renal
A549 NSCLC = test system: A549 NSCLC
ACHN renal = test system: ACHN renal
BT-549 breast = test system: BT-549 breast
CAKI-1 renal = test system: CAKI-1 renal
CCRF-CEM leukemia = test system: CCRF-CEM leukemia
COLO 205 colon = test system: COLO 205 colon
DU-145 prostate = test system: DU-145 prostate
EKVX NSCLC = test system: EKVX NSCLC
HCC-2998 colon = test system: HCC-2998 colon
HCT-116 colon = test system: HCT-116 colon
HCT-15 colon = test system: HCT-15 colon
HL-60(TB) leukemia = test system: HL-60(TB) leukemia
HOP-62 NSCLC = test system: HOP-62 NSCLC
HOP-92 NSCLC = test system: HOP-92 NSCLC
HS 578T breast = test system: HS 578T breast
HT29 colon = test system: HT29 colon
IGROV1 ovarian = test system: IGROV1 ovarian
K-562 leukemia = test system: K-562 leukemia
KM12 colon = test system: KM12 colon
LOX IMVI melanoma = test system: LOX IMVI melanoma
M14 melanoma = test system: M14 melanoma
MALME-3M melanoma = test system: MALME-3M melanoma
MCF7 breast = test system: MCF7 breast
MDA-MB-231 breast = test system: MDA-MB-231 breast
MDA-MB-435 = test system: MDA-MB-435
MOLT-4 leukemia = test system: MOLT-4 leukemia
NCI-H226 lung = test system: NCI-H226 lung

CCc1nn2c(C)cc(C)nc2c1Cc1ccc(/C=C/CN2CCN(CCOCCOCCN3CCN(C/C=C/c4ccc(Cc5c(CC)nn6c(C)cc(C)nc56)cc4)CC3)CC2)cc1
GI50 (786-0 renal): 1.72 µM
TGI (786-0 renal): 3.28 µM
GI50 (A498 renal): 5.15 µM
TGI (A498 renal): 9.66 µM
GI50 (A549 NSCLC): 4.25 µM
TGI (A549 NSCLC): 8.78 µM
GI50 (ACHN renal): 2.25 µM
TGI (ACHN renal): 5.2 µM
GI50 (BT-549 breast): 4.98 µM
TGI (BT-549 breast): 9.52 µM
GI50 (CAKI-1 renal): 1.59 µM
TGI (CAKI-1 renal): 3.35 µM
GI50 (CCRF-CEM leukemia): 1.64 µM
TGI (CCRF-CEM leukemia): 4.18 µM
GI50 (COLO 205 colon): 1.71 µM
TGI (COLO 205 colon): 3.22 µM
GI50 (DU-145 prostate): 2.88 µM
TGI (DU-145 prostate): 7.21 µM
GI50 (EKVX NSCLC): 4.26 µM
TGI (EKVX NSCLC): 8.84 µM
GI50 (HCC-2998 colon): 1.77 µM
TGI (HCC-2998 colon): 3.48 µM
GI50 (HCT-116 colon): 1.63 µM
TGI (HCT-116 colon): 3.16 µM
GI50 (HCT-15 colon): 1.69 µM
TGI (HCT-15 colon): 3.4 µM
GI50 (HL-60(TB) leukemia): 1.78 µM
TGI (HL-60(TB) leukemia): 3.74 µM
GI50 (HOP-62 NSCLC): 4.63 µM
TGI (HOP-62 NSCLC): 9.44 µM
GI50 (HOP-92 NSCLC): 2.37 µM
TGI (HOP-92 NSCLC): 7.16 µM
GI50 (HS 578T breast): 5.14 µM
TGI (HS 578T breast): 12.1 µM
GI50 (HT29 colon): 1.66 µM
TGI (HT29 colon): 3.26 µM
GI50 (IGROV1 ovarian): 2.8 µM
TGI (IGROV1 ovarian): 7.64 µM
GI50 (K-562 leukemia): 1.79 µM
TGI (K-562 leukemia): 4.41 µM
GI50 (KM12 colon): 3.28 µM
TGI (KM12 colon): 7.96 µM
GI50 (LOX IMVI melanoma): 1.68 µM
TGI (LOX IMVI melanoma): 3.16 µM
GI50 (M14 melanoma): 1.76 µM
TGI (M14 melanoma): 3.37 µM
GI50 (MALME-3M melanoma): 1.73 µM
TGI (MALME-3M melanoma): 3.23 µM
GI50 (MCF7 breast): 1.7 µM
TGI (MCF7 breast): 3.35 µM
GI50 (MDA-MB-231 breast): 1.91 µM
TGI (MDA-MB-231 breast): 4.13 µM
GI50 (MDA-MB-435): 1.75 µM
TGI (MDA-MB-435): 3.26 µM
GI50 (MOLT-4 leukemia): 2.16 µM
TGI (MOLT-4 leukemia): 5.13 µM
GI50 (NCI-H226 lung): 5.09 µM
TGI (NCI-H226 lung): 10.9 µM
